Measurements from patent US20070129252A1, “2-Halo-6-alkylphenyl-substituted spirocyclic tetramic acid derivatives” (BAYER CROPSCIENCE AKTIENGESELLSCHAFT, priority 2003, published 2007).

Columns and labels:
Assay type in all cases: in vivo
Myzus persicae [1] = assay: Myzus test (dip treatment); conditions: cabbage leaves
Method: Myzus Test (Dip Treatment)
(§1) To produce a suitable preparation of active compound, 1 part by weight of active compound is mixed with the stated amounts of solvent and emulsifier, and the concentrate is diluted with emulsifier-containing water to the desired concentration.
Cabbage leaves (Brassica oleracea), which are heavily infested by the green peach aphid Myzus persicae), are treated by being dipped into the preparation of active compound of the desired concentration.
(§2) After the desired period of time, the kill in % is determined. 100% means that all aphids have been killed; 0% means that none of the aphids have been killed.

Meloidogyne incognita = assay: Meloidogyne test; conditions: 20 ppm; formation of galls on lettuce roots
Method: To produce a suitable preparation of active compound, 1 part by weight of active compound is mixed with the stated amounts of solvent and emulsifier, and the concentrate is diluted with water to the desired concentration.
Vessels are filled with sand, solution of active compound, Meloidogyne incognita egg/larvae suspension and lettuce seeds. The lettuce seeds germinate and the plants develop. On the roots, galls develop.
After the desired period of time, the nematicidal action is determined in % by the formation of galls. 100% means that no galls have been found; 0% means that the number of galls on the treated plants corresponds to that of the untreated control.

Myzus persicae [2] = assay: Myzus test (spray treatment); conditions: 100 g/ha, Chinese cabbage discs
Method: Myzus Test (Spray Treatment)
as §1
Discs of Chinese cabbage (Brassica pekinensis), which are infested by all stages of the green peach aphid (Myzus persicae), are sprayed with a preparation of active compound of the desired concentration.
After the desired period of time, the effect in % is determined. 100% means that all aphids have been killed; 0% means that none of the aphids have been killed.

Avena sativa [3] = assay: Herbicidal post-emergence action (Example M); conditions: greenhouse, 320 g of a.i./ha, about 3 weeks
Method: (§3) Herbicidal Post-Emergence Action
(§4) Seeds of monocotyledonous and dicotyledonous weed and crop plants are placed into sandy loam in wood fibre pots, covered with soil and cultivated in a greenhouse under good growth conditions. 2-3 weeks after sowing, the test plants are treated at the one-leaf stage. The test compounds, formulated as wettable powders (WP), are, in various dosages with a water application rate of 600 l/ha (converted), with 0.2% of wetting agent added, sprayed onto the green parts of the plants. After the test plants were kept in the greenhouse under optimum growth conditions for about 3 weeks, the effect of the preparations is rated visually in comparison to untreated controls (herbicidal effect in percent (%): 100% effect=the plants have died, 0% effect=like control plants).

Lolium [4] = assay: Herbicidal post-emergence action (Example M); conditions: greenhouse, 320 g of a.i./ha, about 3 weeks
Method: as §3, §4

Setaria [5] = assay: Herbicidal post-emergence action (Example M); conditions: greenhouse, 320 g of a.i./ha, about 3 weeks
Method: as §3, §4

Avena sativa [6] = assay: Herbicidal pre-emergence action (Example L); conditions: greenhouse, 320 g of a.i./ha, 3 weeks
From the text: (§5) Herbicidal Pre-Emergence Action
(§6) Seeds of monocotyledonous and dicotyledonous weed and crop plants are placed into sandy loam in wood fibre pots and covered with soil. The test compounds, formulated in the form of wettable powders (WP), are then, in various dosages as aqueous suspension with a water application rate of 600 l/ha (converted), with 0.2% of wetting agent added, applied to the surface of the covering soil.
(§7) After the treatment, the pots are placed in a greenhouse and kept under good growth conditions for the test plants. The visual assessment of the emergence damage on the test plants is carried out after a trial period of 3 weeks by comparison with untreated controls (herbicidal effect in percent (%): 100% effect=the plants have died, 0% effect=like control plants).

Lolium [7] = assay: Herbicidal pre-emergence action (Example L); conditions: greenhouse, 320 g of a.i./ha, 3 weeks
From the text: as §5, §6, §7

Setaria [8] = assay: Herbicidal pre-emergence action (Example L); conditions: greenhouse, 320 g of a.i./ha, 3 weeks
From the text: as §5, §6, §7

Sinapis = assay: Herbicidal pre-emergence action (Example L); conditions: greenhouse, 320 g of a.i./ha, 3 weeks
From the text: as §5, §6, §7

Stellaria = assay: Herbicidal pre-emergence action (Example L); conditions: greenhouse, 320 g of a.i./ha, 3 weeks
From the text: as §5, §6, §7

Tetranychus urticae = assay: Tetranychus test (OP-resistant/dip treatment); conditions: 100 ppm; dip treatment; bean plants (Table H)
Method: Tetranychus Test (OP-Resistant/Dip Treatment)
as §1
Bean plants (Phaseolus vulgaris), which are heavily infested by all stages of the greenhouse red spider mite (Tetranychus urticae), are dipped into a preparation of active compound of the desired concentration.
After the desired period of time, the activity in % is determined. 100% means that all spider mites have been killed; 0% means that none of the spider mites have been killed.

Aphis gossypii = Aphis gossypii test; conditions: 500 ppm; dip treatment; cotton leaves
Method: as §1
Cotton leaves (Gossypium hirsutum), which are heavily infested by the cotton aphid (Aphis gossypii), are treated by being dipped into the preparation of active compound of the desired concentration.
as §2

Phaedon cochleariae = assay: Phaedon larvae test (dip treatment); conditions: 500 ppm, cabbage leaves
Method: Phaedon Larvae Test (Dip Treatment) [[[…]]] To produce a suitable preparation of active compound, 1 part by weight of active compound is mixed with the stated amounts of solvent and emulsifier, and the concentrate is diluted with emulsifier-containing water to the desired concentration. Cabbage leaves (Brassica oleracea) are treated by being dipped into the preparation of active compound of the desired concentration and are populated with larvae of the mustard beetle (Phaedon cochleariae) while the leaves are still moist.

Echinochloa [9] = assay: Post-emergence test (Example J); conditions: greenhouse, 60 g of a.i./ha, after three weeks
Method: (§8) To produce a suitable preparation of active compound, 1 part by weight of active compound is mixed with the stated amount of solvent, the stated amount of emulsifier is added and the concentrate is diluted with water to the desired concentration.
(§9) Test plants of a height of 5-15 cm are sprayed with the preparation of active compound such that the particular amounts of active compound desired are applied per unit area. The concentration of the spray liquor is chosen such that the particular amounts of active compound desired are applied in 1000 l of water/ha.
(§10) After three weeks, the degree of damage in the plants is rated in % damage in comparison to the development of the untreated control.
(§11) 0%=no effect (like untreated control)

Lolium [10] = assay: Post-emergence test (Example J); conditions: greenhouse, 60 g of a.i./ha, after three weeks
Method: as §8, §9, §10, §11

sugarbeets [11] = assay: Post-emergence test (Example J); conditions: greenhouse, 60 g of a.i./ha, after three weeks
Method: as §8, §9, §10, §11

Echinochloa [12] = assay: Pre-emergence test (Example K); conditions: greenhouse, 30 g of a.i./ha, after three weeks
Method: as §8
(§12) Seeds of the test plants are sown in normal soil. After about 24 hours, the soil is sprayed with the preparation of active compound such that the particular amounts of active compound desired are applied per unit area. The concentration of the spray liquor is chosen such that the particular amounts of active compound desired are applied in 1000 l of water/ha.
(§13) After three weeks, the degree of damage to the plants is rated in % damage in comparison to the development of the untreated control.
as §11

Lolium [13] = assay: Pre-emergence test (Example K); conditions: greenhouse, 30 g of a.i./ha, after three weeks
Method: as §8, §12, §13, §11

Setaria [14] = assay: Pre-emergence test (Example K); conditions: greenhouse, 30 g of a.i./ha, after three weeks
Method: as §8, §12, §13, §11

sugarbeets [15] = assay: Pre-emergence test (Example K); conditions: greenhouse, 30 g of a.i./ha, after three weeks
Method: as §8, §12, §13, §11

summer barley = assay: Herbicidal post-emergence action, vessel trials with cereals in the greenhouse, use of safeners (Example N); conditions: without safener
Method: as §3
(§14) Seeds of monocotyledonous and dicotyledonous weed and crop plants are placed into sandy loam in wood fibre pots or in plastic pots, covered with soil and cultivated in a greenhouse, during the vegetation period also outdoors outside of the greenhouse, under good growth conditions. 2-3 weeks after sowing, the test plants are treated at the one- to three-leaf stage. The test compounds, formulated as wettable powders (WP) or emulsifiable concentrates (EC) are, in various dosages with a water application rate of 300 l/ha (converted), with wetting agent (0.2 to 0.3%) added, sprayed onto the plants and the surface of the soil. 3-4 weeks after the treatment of the test plants, the effect of the preparations is rated visually in comparison to untreated controls (herbicidal effect in percent (%): 100% effect=the plants have died, 0% effect=like control plants).
(§15) If it is additionally to be tested as to whether safeners can improve the plant compatibility of test substances in the case of crop plants, the following options are used for applying the safener: • seeds of the crop plants are, before sowing, dressed with the safener substance (the amount of safener is stated in percent, based on the weight of the seed) • before the application of the test substances, the crop plants are sprayed with the safener at a certain application rate per hectare (usually 1 day before the application of the test substances) • the safener is applied together with the test substance as a tank mix (the amount of safener is stated in g/ha or as a ratio, based on the herbicide).
(§16) By comparing the effect of the test substances on crop plants without or with safener treatment, it is possible to assess the effect of the safener substance.
(§17) Vessel Trials with Cereals in the Greenhouse
(§18) Mefenpyr applied 1 day prior to the application of herbicide

summer wheat = assay: as above; conditions: without safener
Method: as §3, §14, §15, §16, §17, §18

CCc1cc(C)cc(Br)c1C1=C(O)C2(CCOCC2)NC1=O [Example I-a-1]
Kill rate in % after 6d (Myzus persicae [1]; 100 ppm): 75% | Effect in % after 14d (Meloidogyne incognita): 80% | Kill rate in % after 5d (Myzus persicae [2]): 100% | herbicidal effect in percent, Avena sativa (Avena sativa [3]): 100% | herbicidal effect in percent, Lolium (Lolium [4]): 100% | herbicidal effect in percent, Setaria (Setaria [5]): 80% | herbicidal effect in percent, Avena sativa (Avena sativa [6]): 70% | herbicidal effect in percent, Lolium (Lolium [7]): 80% | herbicidal effect in percent, Setaria (Setaria [8]): 90% | herbicidal effect in percent, Sinapis (Sinapis): 70% | herbicidal effect in percent, Stellaria (Stellaria): 100%

CCc1cc(C)cc(Cl)c1C1=C(O)C2(CCC(OC)CC2)NC1=O (single isomer, unassigned) [Example I-a-4]
Kill rate in % after 6d (Myzus persicae [1]; 4 ppm): 95% | Kill rate in % after 7d (Tetranychus urticae): 99% | Kill rate in % after 6d (Aphis gossypii): 80% | Kill rate in % after 7d (Phaedon cochleariae): 100% | % damage, Echinochloa (Echinochloa [9]): 100% | % damage, Lolium (Lolium [10]): 100% | % damage, sugarbeets (sugarbeets [11]): 0% | % damage, Echinochloa (Echinochloa [12]): 80% | % damage, Lolium (Lolium [13]): 100% | % damage, Setaria (Setaria [14]): 100% | % damage, sugarbeets (sugarbeets [15]): 0% | summer barley observed (%) (summer barley; 12.5 g of a.i./ha): 10% | summer barley observed (%) (summer barley; 25 g of a.i./ha): 30% | summer barley observed (%) (summer barley; 50 g of a.i./ha): 97% | summer wheat observed (%) (summer wheat; 12.5 g of a.i./ha): 50% | summer wheat observed (%) (summer wheat; 25 g of a.i./ha): 98%
